These are literature values, as cited in patent US20240207240A1, “Method for Improving or Treating Cognitive Dysfunction Complicating HIV-associated Cryptococcal Meningitis with Lenalidomide” (The First Affiliated Hospital Zhejiang University School of …, priority 2022, published 2024).

The conditions of series [1]: in vivo; cited from earlier work.
The conditions of series [2]: cited from earlier work.

On to `O=C1CCC(N2C(=O)c3ccccc3C2=O)C(=O)N1` (stereo not drawn) [thalidomide], for which the side effects result in series [1] was “bone marrow suppression, cardiotoxicity, vascular thrombosis, and neurotoxicity”. In addition, the bioavailability result in series [2] was “high”.
`Nc1cccc2c1C(=O)N(C1CCC(=O)NC1=O)C2=O` (stereo not drawn) [pomalidomide]: in series [2], the bioavailability result is given as “high”.
